What was measured:
[1] = Rat hindpaw withdrawal latency (HWL) to thermal stimulation (hot-plate test, 52° C.); type: in vivo; conditions: Day 6, i.t. every 12 hrs: morphine 8 μg, or rotated with nociceptin 10 nmol every 2 days
[2] = Rat hindpaw withdrawal latency (HWL) to mechanical stimulation (Randall Selitto Test); type: in vivo; conditions: Day 14, i.t. every 12 hrs, morphine 8 μg rotated with nociceptin 10 nmol every 2 days
[3] = Development of tolerance to intrathecal analgesia in rat HWL study (thermal and mechanical); type: in vivo; conditions: drug alone i.t. every 12 hrs
[4] = after parenteral injection; cited from earlier work

| SMILES | % Changes of HWL to Thermal Stimulation 10 Minutes After Intrathecal Injection, Left ([1]; left hindpaw) | % Changes of HWL to Thermal Stimulation 10 Minutes After Intrathecal Injection, Right ([1]; right hindpaw) | % Changes of HWL to Mechanical Stimulation 10 Minutes After Intrathecal Injection, Left [2] | day by which total/complete tolerance exists [3] | brain penetration [4] |
| --- | --- | --- | --- | --- | --- |
| CN1CC[C@]23c4c5ccc(O)c4O[C@H]2[C@@H](O)C=C[C@H]3[C@H]1C5 [Morphine, morphine] | −1.30 ± 2.36% | 0.51 ± 1.61% | −0.84 ± 1.61% | ≤ 6 days | – |
| O=C1NCN(c2ccccc2)C12CCN([C@H]1CC[C@@H]3CCCc4cccc1c43)CC2 [RO 64-6198, (1S,3aS)8-(2,3,3a,4,5,6-hexahydro-1H-phenalen-1-yl)-1-phenyl-1,3,8-triaza-spiro[4,5]decan-4-one] | – | – | – | – | high degree of brain penetration |

Source: patent publication US20030032651A1 (priority 2001, published 2003)
